Experimental data as given in PubChem BioAssay AID1963843 (Molecular Pharmacology Branch, DTP, NCI, 2024).
Values joined by “and” are separate entries in the source; they are usually repeats but may differ in a detail not shown here. Identical values can stand only once.

System: 616215-338-R-J1-PDC complex spheroid viability
Test: Anticancer human tumor 616215-338-R-J1-PDC patient-derived colon adenocarcinoma cell line growth inhibition [POLQ]
Conditions: for viability, T/C: stronger effect = lower value
Experimental: Multicellular complex tumor spheroid response to Polymerase (POL) inhibitors (novobiocin, ART-558, RP6685) in combination with a variety of drugs and investigational agents in selected tumor cell lines
The POL inhibitors (novobiocin, ART-558, and RP6685) were evaluated both individually and in combination with standard of care and investigational anticancer small molecules within a complex spheroid model of solid tumors. . Complex spheroids include a stromal component modeled by human endothelial cells (HUVEC) and fibroblasts modeled by human mesenchymal stem cells (MSCs). The concentration ranges selected for each drug and investigational agent were based upon clinically achievable concentrations if the clinical Cmax of the agent was known.
Compounds. The drugs and investigational agents: novobiocin (NSC847541), ART-558 (NSC835418), RP-6685 (NSC848927), peposertib (NSC802822), ceralasertib (NSC780249), elimusertib (NSC800525), camonsertib (NSC841442), AZD-1390 (NSC803789), olaparib (NSC753686), talazoparib (NSC767125), rucaparib (NSC756644), sotorasib (NSC818433), MRTX-1133 (NSC836407), SN-38 (NSC673596), topotecan (NSC609699), epotoside (NSC141540), doxorubicin (NSC123127), gemcitabine (NSC613327), 5-fluorouracil (NSC19893), paclitaxel (NSC125973), vemurafenib (NSC761431), MSA-2 (NSC828583), SN-011 (NSC837082), adavosertib (NSC754352), prexasertib (NSC758257), carboplatin (NSC241240) and oxaliplatin (NSC266046), were obtained from the National Cancer Institute (NCI) Developmental Therapeutics Program Chemical Repository (21). The FDA-approved anticancer drug set is available from the Developmental Therapeutics Program at https://dtp.cancer.gov/organization/dscb/obtaining/. […] The stock solutions were prepared in dimethyl sulfoxide (DMSO, Sigma-Aldrich, St. Louis, MO, cat. D2650), except for the platinum compounds which were prepared in saline (Quality Biological, Gaithersburg, MD, cat. 114-055-101), at 800-fold the tested concentration and stored at -70 degrees C prior to their use. All drugs and investigational agents were tested over a range starting from a high concentration at or near the clinical Cmax and decreasing in half-log increments. If the clinical Cmax for an agent had not been determined, the highest concentration tested was 10 microM, except for SN-38, which was tested at a high concentration of 1 microM.
Cell Culture. All cells were maintained in an incubator at 37 degrees C and 5% CO2 with 95% humidity. The PDC lines were cultured according to standard operating procedures established by the NCI PDMR (https://pdmr.cancer.gov). Table 3 of the manuscript, lists the cell lines along with the number of the three cell types plated to form the mct-spheroids and media for tumor cell growth. After thawing, all PDC lines, except 997537-175-T-J1-PDC and 415267-285-R-J2-PDC, were cultured in Matrigel-coated flasks prepared with a working solution of 1X Ham's F-12 nutrient mix, without supplementation (Thermo Fisher Scientific, cat. 11765054), 100 U/mL penicillin-streptomycin (Thermo Fisher Scientific, cat. 15140122), and 2.5% Matrigel (Corning Inc., Corning, NY, cat. 354248) for the first three passages. The two PDC lines 997537-175-T-J1-PDC and 415267-285-R-J2-PDC were cultured on uncoated flasks. The 857933-349-R-J2-PDC line was cultured in 6C/Colon 1B media containing advanced DMEM/F-12 (Thermo Fisher Scientific, cat. 12634028), 10 mM HEPES (Thermo Fisher Scientific, cat. 15630080), 1X GlutaMAX supplement (Thermo Fisher Scientific, cat. 35050061), 0.1 mg/mL primocin (InvivoGen, San Diego, CA, cat. ant-pm-2), 10% defined fetal bovine serum, heat inactivated (HyClone Laboratories Inc., Logan, UT, cat. SH30070.03HI), 50% L-WRN conditioned media (ATCC, cat. CRL-3276), 1.25 mM N-Acetyl-L-cysteine (Sigma-Aldrich, cat. A9165), 10 mM nicotinamide (Sigma-Aldrich, cat. N0636), 1X B-27 supplement (Thermo Fisher Scientific, cat. 17504044), 1X N-2 supplement (Thermo Fisher Scientific, cat. […]

[1] = compound alone, run of 11/27/2023
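Further: spheroids exposed to compounds for one week before readout.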
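Wherever viability, T/C is given: percent viability relative to DMSO vehicle wells taken as 100%.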

SMILES: CC1COCCN1c1cc(-c2ccnn2C)c2ccnc(-c3ccn[nH]3)c2n1 (stereo not drawn) + Nc1ccc(C#CCN(C(=O)Cc2ncc(C(F)(F)F)cc2C(F)(F)F)c2ccc(F)cc2)nn1
- IC50 (curve of first compound, second compound 0.0316 µM): 155 nM
- IC50 (curve of first compound, second compound 0.1 µM): 165 nM
- IC50 (curve of first compound, second compound 0.316 µM): 190 nM
- IC50 (curve of first compound, second compound 1 µM): 115 nM
- IC50 (curve of first compound, second compound 3.16 µM): 192 nM
- IC50 (curve of first compound, second compound 10 µM): 154 nM
- viability, T/C (second compound 0.0316 µM, first compound 0.0316 µM): 86%
- viability, T/C (second compound 0.0316 µM, first compound 0.1 µM): 56.8%
- viability, T/C (second compound 0.0316 µM, first compound 0.316 µM): 38.9%
- viability, T/C (second compound 0.0316 µM, first compound 1 µM): 31.7%
- viability, T/C (second compound 0.0316 µM, first compound 3.16 µM): 25.9%
- viability, T/C (second compound 0.0316 µM, first compound 10 µM): 27.4%
- viability, T/C (second compound 0.1 µM, first compound 0.0316 µM): 93.8%
- viability, T/C (second compound 0.1 µM, first compound 0.1 µM): 60.6%
- viability, T/C (second compound 0.1 µM, first compound 0.316 µM): 34.7%
- viability, T/C (second compound 0.1 µM, first compound 1 µM): 29.8%
- viability, T/C (second compound 0.1 µM, first compound 3.16 µM): 24.5%
- viability, T/C (second compound 0.1 µM, first compound 10 µM): 19.4%
- viability, T/C (second compound 0.316 µM, first compound 0.0316 µM): 102%
- viability, T/C (second compound 0.316 µM, first compound 0.1 µM): 67.4%
- viability, T/C (second compound 0.316 µM, first compound 0.316 µM): 35.2%
- viability, T/C (second compound 0.316 µM, first compound 1 µM): 26.8%
- viability, T/C (second compound 0.316 µM, first compound 3.16 µM): 22.4%
- viability, T/C (second compound 0.316 µM, first compound 10 µM): 18.9%
- viability, T/C (second compound 1 µM, first compound 0.0316 µM): 101%
- viability, T/C (second compound 1 µM, first compound 0.1 µM): 52.9%
- viability, T/C (second compound 1 µM, first compound 0.316 µM): 29%
- viability, T/C (second compound 1 µM, first compound 1 µM): 26.8%
- viability, T/C (second compound 1 µM, first compound 3.16 µM): 21.6%
- viability, T/C (second compound 1 µM, first compound 10 µM): 23.1%
- viability, T/C (second compound 3.16 µM, first compound 0.0316 µM): 96.7%
- viability, T/C (second compound 3.16 µM, first compound 0.1 µM): 59.5%
- viability, T/C (second compound 3.16 µM, first compound 0.316 µM): 45.8%
- viability, T/C (second compound 3.16 µM, first compound 1 µM): 24.8%
- viability, T/C (second compound 3.16 µM, first compound 3.16 µM): 23.6%
- viability, T/C (second compound 3.16 µM, first compound 10 µM): 18.7%
- viability, T/C (second compound 10 µM, first compound 0.0316 µM): 104%
- viability, T/C (second compound 10 µM, first compound 0.1 µM): 56.4%
- viability, T/C (second compound 10 µM, first compound 0.316 µM): 40.1%
- viability, T/C (second compound 10 µM, first compound 1 µM): 25.1%
- viability, T/C (second compound 10 µM, first compound 3.16 µM): 20.1%
- viability, T/C (second compound 10 µM, first compound 10 µM): 22.2%

SMILES: CC(C)n1c(=O)n(C)c2cnc3cc(F)c(-c4ccc(OCCCN5CCCCC5)nc4)cc3c21
- viability, T/C (compound 0.0316 µM): 112% and 102% and 72.9%
- viability, T/C (compound 0.1 µM): 97% and 109% and 75%
- viability, T/C (compound 0.316 µM): 106% and 93% and 74.8%
- viability, T/C (compound 1 µM): 107% and 94.6% and 79.2%
- viability, T/C (compound 3.16 µM): 108% and 101% and 85.2%
- viability, T/C (compound 10 µM): 101% and 96% and 72.1%
- IC50 (curve of compound): > 10000 nM

SMILES: COC1C(OC(N)=O)C(O)C(Oc2ccc3c(O)c(NC(=O)c4ccc(O)c(CC=C(C)C)c4)c(=O)oc3c2C)OC1(C)C (stereo not drawn)
- viability, T/C (compound 0.0316 µM): 101% [middle of 13 runs]
- viability, T/C (compound 0.1 µM): 102% [middle of 12 runs]
- viability, T/C (compound 0.316 µM): 103% [middle of 13 runs]
- viability, T/C (compound 1 µM): 99.2% [middle of 13 runs]
- viability, T/C (compound 3.16 µM): 101% [middle of 13 runs]
- viability, T/C (compound 10 µM): 100% [middle of 13 runs]
- IC50 [1]: > 10000 nM

SMILES: CC(=O)O[C@H]1C(=O)[C@@]2(C)[C@H]([C@H](OC(=O)c3ccccc3)[C@]3(O)C[C@H](OC(=O)[C@H](O)[C@@H](NC(=O)c4ccccc4)c4ccccc4)C(C)=C1C3(C)C)[C@]1(OC(C)=O)CO[C@@H]1C[C@@H]2O
- viability, T/C (compound 0.00949 µM): 39.3% and 41.7% and 86.3%
- viability, T/C (compound 0.03 µM): 23.3% and 27.1% and 44.5%
- viability, T/C (compound 0.0949 µM): 23.8% and 24.4% and 38.2%
- viability, T/C (compound 0.3 µM): 15.6% and 17.9% and 35.5%
- viability, T/C (compound 0.949 µM): 18% and 18.2% and 36.7%
- viability, T/C (compound 3 µM): 21.7% and 17.8% and 34.3%
- IC50 (curve of compound): < 9.49 nM and 25.8 nM

SMILES: Cc1cccc(N(C)C(=O)C2C(O)CCN2c2nc(C)cc(C(F)(F)F)c2C#N)c1 (stereo not drawn)
- viability, T/C (compound 0.0316 µM): 97.4% [middle of 13 runs]
- viability, T/C (compound 0.1 µM): 99% [middle of 13 runs]
- viability, T/C (compound 0.316 µM): 100% [middle of 13 runs]
- viability, T/C (compound 1 µM): 105% [middle of 13 runs]
- viability, T/C (compound 3.16 µM): 104% [middle of 13 runs]
- viability, T/C (compound 10 µM): 102% [middle of 12 runs]
- IC50 [1]: > 10000 nM
- IC50 (compound alone, run of 12/05/2023): > 10000 nM

SMILES: COc1cccc2c1C(=O)c1c(O)c3c(c(O)c1C2=O)CC(O)(C(=O)CO)CC3OC1CC(N)C(O)C(C)O1 (stereo not drawn)
- viability, T/C (compound 0.0316 µM): 95.8% and 65% and 107%
- viability, T/C (compound 0.1 µM): 89.2% and 52.3% and 101%
- viability, T/C (compound 0.316 µM): 78.2% and 37.8% and 76.8%
- viability, T/C (compound 1 µM): 60.1% and 25.3% and 60.5%
- viability, T/C (compound 3.16 µM): 7.28% and 2.34% and 9.83%
- viability, T/C (compound 10 µM): 0.55% and 0.17% and 0.93%
- IC50 (curve of compound): 1190 nM and 133 nM and 1060 nM
